Tests used:
[1] = tested on: phosphorylated JNK; assay: JNK phosphorylation in primary hippocampal neurons treated with oligomeric Aβ (Western blot); format: cell-based, mouse; settings: 500 nM every 24 h, 48 h
Protocol: (§1) treated with ENT-A013 (500nM) or Neurotrophin-3 (100ng/ml) for 30’ and then subjected to Western Blot against phosphorylated TrkC, Akt and Erk1/2. […]
(§2) phosphorylated any of those. (D) CellTox assay was performed in NIH-3T3-TrkB cells that were starved from serum and treated with ENT-A013 or BDNF for 24hrs. Quantification (E) […]
(§3) negative control (Serum Free).
(§4) Supplementary Figure S3: Primary DRG neurons were cultured in the presence of ENT-A013 (500nM, supplemented every 48hrs) and a neutralizing antibody against NGF for 5 days and then neurite length was measured by immunostaining against Tuj1 .
(§5) Supplementary Figure S4: Primary hippocampal neurons at 14-16 DIV were treated with oligomeric Aβ and in the presence of ENT-A013 (500nM, supplemented every 24hrs) for 48hrs and then were subjected to Western Blot against phosphorylated JNK. A representative blot […]

[2] = tested on: hippocampal brain slices; assay: LTP electrophysiology in hippocampal brain slices treated with oligomeric Aβ; parameters: species or system mouse; settings: oligomeric Aβ 5 μM, 500 nM, 3–5 h, vs slices treated only with Aβ
Text: C57BL/6J mice were euthanized under halothane anesthesia and the brain was quickly dissected and placed in ice-cold oxygenated artificial cerebrospinal fluid (aCSF; 95% O2/5% CO2) containing (in mM): 125 NaCl, 3.5 KCl, 26 NaHCO3, 1 MgCl2 and 10 glucose (pH = 7.4, 315 mOsm/L). The brain was then placed onto the stage of a vibratome (Leica, VT1000S, Leica Biosystems GmbH, Wetzlar, Germany) and transverse slices containing the hippocampus were obtained. […] Field excitatory post-synaptic potentials (fEPSP) were amplified using an EXT-02F amplifier ([…]), digitized with ITC-18 (HEKA Elektronik GmbH, Reutlingern, Germany) and recorded in a computer running Windows 10 with IgorPro software (Wavemetrics Inc., Portland, OR, USA). […] The fEPSP amplitude was calculated from the minimum voltage value of the synaptic response (3–5 ms following stimulation) compared to the baseline voltage prior to stimulation. fEPSP recordings were acquired every 90″ for 10′ before TBS and continued for approximately 50′ following LTP induction. Recorded traces were analyzed using a custom-made script in the IgorPro software (Wavemetrics Inc., Portland, OR, USA).

[3] = tested on: NIH-3T3-TrkB cells; assay: CellTox assay in serum-starved NIH-3T3-TrkB cells; format: cell-based; settings: 24hrs
Protocol: as §1, §2, §3, §4, §5

[4] = tested on: Primary hippocampal neurons; assay: Synaptophysin synapse assay in primary hippocampal neurons treated with oligomeric Aβ; format: cell-based, mouse; settings: 5 μM oligomeric Aβ, 500 nM, 4 h
Protocol: Primary hippocampal neurons were isolated from E17.5 mouse embryos (C57BL/6J, The Jackson Laboratory, Bar Harbor, ME, USA) as previously described and cultured with Neurobasal medium containing 2% B27, 1X GlutaMax, 10 mM HEPES and 1% PenStrep. Cells were maintained in a humified incubator at 37 °C and 5% CO2. For TUNEL assay, cells were left in culture for 16–18 days and then treated with 5 μM oligomeric Aβ along with ENT-A013 (500 nM, every 24 h) for 48 h. Cells were then fixed with 4% PFA and labelled with TUNEL (F. Hoffmann–La Roche Ltd., Basel, Switzerland, cat# 11684795910) following the manufacturer’s protocol. Subsequently, cells were immunostained against Tuj1 and imaged with confocal microscopy. For synaptic plasticity assay, cells were left in culture for 16–18 days and then treated with 5 μM oligomeric Aβ along with ENT-A013 (500 nM) for 4 h. Cells were then fixed with 4% PFA and immunostained against Tuj1 and Synaptophysin (1:1000, PA1-1043, Invitrogen, Waltham, MA, USA), anti-mouse Alexa fluor 488 (1:1000, A-11029, Invitrogen, Waltham, MA, USA) and anti-rabbit Alexa fluor 546 (1:1000, A10040, Invitrogen, Waltham, MA, USA). Images were acquired using confocal microscopy and the total area of synaptophysin positive puncta was measured and normalized to Tuj1 total area.

CC12CCC(O)CC1=CCC1C2CCC2(C)C1CCC21CC1C=CBr [ENT-A013, (2′R,3S,17S)-2′-(2-Bromovinyl)-5-Androstene-17,1′-Cyclopropan-3-ol]
phosphorylated JNK levels (in words) [1]: reduced phosphorylated JNK levels similar to untreated control cells
synaptic potentiation after TBS (in words) [2]: significantly increased synaptic potentiation
cell death vs negative control (Serum Free) (in words) [3]: no significant difference
synapse number (synaptophysin area normalized to Tuj1 area) [4]: 1.08 ± 0.08 % of control FC

Source: PMC8945229, “Development and Biological Characterization of a Novel Selective TrkA Agonist with Neuroprotective Properties against Amyloid Toxicity” (Biomedicines, 2022)
